Literature values in patent publication US20210393650A1, “Designing Treatments for Chemotherapy-Induced and Age-Related Menopausal Symptoms Using Combinations of Natural Products and Prescription Medications” (Tess Ventures, Inc., priority 2018, published 2021).

Columns and labels:
postmenopausal women = settings: human, in vivo
humans = settings: for effect on anxiety: humans, low to moderate doses
CB1 receptor = settings: centrally-mediated, through the CB1 receptor

SMILES: COc1cc(/C=C/C(=O)CC(=O)/C=C/c2ccc(O)c(OC)c2)ccc1O [curcumin]
- tail skin temperature (ovariectomized rat): significant suppression

SMILES: OCCOc1ccc(/C(=C(/CCCl)c2ccccc2)c2ccccc2)cc1 [ospemifene, Z-2-[4-(4-chloro-1,2-diphenyl-but-1-enyl)-phenoxy]ethanol]
- treatment of VVA symptoms versus local estrogen (postmenopausal women): equivalent to or better than local estrogen

SMILES: C=C(C)[C@@H]1CCC(C)=C[C@H]1c1c(O)cc(CCCCC)cc1O [CBD, 2-[(1R,6R)-3-methyl-6-prop-1-en-2-ylcyclohex-2-en-1-yl]-5-pentyl-benzene-1,3-diol]
- effect on anxiety (humans): anxiolytic effects
- effect on insomnia (humans; medium to high doses): sedative effect

SMILES: CCCCCc1cc(O)c2c(c1)OC(C)(C)C1CCC(C)=CC21 (stereo not shown) [Δ^9-THC, 6,6,9-trimethyl-3-pentyl-6a,7,8,10a-tetrahydrobenzo[c]chromen-1-ol]
- effect on anxiety (humans): anxiolytic effects
- effect on sleep quality (humans; insomnia): enhance short-term sleep quality
- effect on body temperature (CB1 receptor): hypothermic effect
